In the NIST ThermoML archive (doi:10.1021/je500917k):

Assay: xn = mol fraction of the nth substance listed
Conditions: 100 kPa, Liquid; for speed of sound: Frequency=2 MHz

CCN1CCCC1=O [1-ethyl-2-pyrrolidinone] + CNCCO
Conditions | mass density [kg/m3] | speed of sound [m/s] | viscosity [mPa·s]
293.15 K, x1 = 0.0905 | 947.11 | 1479.8 | 9.188
293.15 K, x1 = 0.1825 | 953.11 | 1478.5 | 6.79
293.15 K, x1 = 0.2767 | 958.92 | 1478.5 | 5.162
293.15 K, x1 = 0.3731 | 964.75 | 1480.1 | 4.095
293.15 K, x1 = 0.4713 | 970.4 | 1483.1 | 3.496
293.15 K, x1 = 0.5725 | 975.84 | 1486.9 | 2.951
293.15 K, x1 = 0.6756 | 981.28 | 1491.4 | 2.648
293.15 K, x1 = 0.7808 | 986.73 | 1497.9 | 2.358
293.15 K, x1 = 0.8888 | 992.12 | 1504.7 | 2.231
293.15 K, x1 = 1 | 997.71 | 1512.1 | 2.117
303.15 K, x1 = 0.0905 | 939.11 | 1447.2 | 6.239
303.15 K, x1 = 0.1825 | 944.94 | 1445.2 | 4.715
303.15 K, x1 = 0.2767 | 950.62 | 1444.1 | 3.747
303.15 K, x1 = 0.3731 | 956.31 | 1444.9 | 3.068
303.15 K, x1 = 0.4713 | 961.92 | 1447.3 | 2.666
303.15 K, x1 = 0.5725 | 967.33 | 1450.6 | 2.339
303.15 K, x1 = 0.6756 | 972.75 | 1454.6 | 2.125
303.15 K, x1 = 0.7808 | 978.18 | 1460.6 | 1.94
303.15 K, x1 = 0.8888 | 983.56 | 1467 | 1.83
303.15 K, x1 = 1 | 989.14 | 1474.2 | 1.771
313.15 K, x1 = 0.0905 | 931.05 | 1414.1 | 4.394
313.15 K, x1 = 0.1825 | 936.73 | 1411.3 | 3.488
313.15 K, x1 = 0.2767 | 942.28 | 1409.4 | 2.89
313.15 K, x1 = 0.3731 | 947.87 | 1409.5 | 2.409
313.15 K, x1 = 0.4713 | 953.42 | 1411.6 | 2.123
313.15 K, x1 = 0.5725 | 958.78 | 1414.3 | 1.914
313.15 K, x1 = 0.6756 | 964.1 | 1418 | 1.776
313.15 K, x1 = 0.7808 | 969.61 | 1423.5 | 1.639
313.15 K, x1 = 0.8888 | 974.99 | 1429.4 | 1.546
313.15 K, x1 = 1 | 980.56 | 1436 | 1.518
323.15 K, x1 = 0.0905 | 922.92 | 1381 | 3.293
323.15 K, x1 = 0.1825 | 928.44 | 1377.6 | 2.683
323.15 K, x1 = 0.2767 | 933.89 | 1375.1 | 2.267
323.15 K, x1 = 0.3731 | 939.38 | 1374.6 | 1.943
323.15 K, x1 = 0.4713 | 944.88 | 1376.1 | 1.747
323.15 K, x1 = 0.5725 | 950.21 | 1378.3 | 1.58
323.15 K, x1 = 0.6756 | 955.61 | 1381.7 | 1.478
323.15 K, x1 = 0.7808 | 961.03 | 1386.8 | 1.41
323.15 K, x1 = 0.8888 | 966.4 | 1392.3 | 1.331
323.15 K, x1 = 1 | 971.96 | 1398.5 | 1.299

CCNCCO [2-(ethylamino)ethanol] + CCN1CCCC1=O
Conditions | mass density [kg/m3] | speed of sound [m/s] | viscosity [mPa·s]
293.15 K, x2 = 0 | 917.79 | 1442.4 | 15.28
293.15 K, x2 = 0.111 | 925.54 | 1444.5 | 10.35
293.15 K, x2 = 0.2179 | 933.77 | 1448.8 | 7.447
293.15 K, x2 = 0.3242 | 941.8 | 1453.7 | 5.665
293.15 K, x2 = 0.4274 | 949.86 | 1459.7 | 4.571
293.15 K, x2 = 0.5359 | 958.36 | 1468 | 3.849
293.15 K, x2 = 0.6269 | 965.64 | 1473.3 | 3.126
293.15 K, x2 = 0.7225 | 973.71 | 1482 | 2.717
293.15 K, x2 = 0.8177 | 981.7 | 1491.1 | 2.458
293.15 K, x2 = 0.9095 | 989.6 | 1501 | 2.261
303.15 K, x2 = 0 | 909.82 | 1408.3 | 9.59
303.15 K, x2 = 0.111 | 917.42 | 1409.8 | 6.874
303.15 K, x2 = 0.2179 | 925.53 | 1413.7 | 5.212
303.15 K, x2 = 0.3242 | 933.46 | 1418.1 | 4.093
303.15 K, x2 = 0.4274 | 941.44 | 1423.5 | 3.257
303.15 K, x2 = 0.5359 | 949.89 | 1431.6 | 2.917
303.15 K, x2 = 0.6269 | 957.14 | 1436.5 | 2.458
303.15 K, x2 = 0.7225 | 965.19 | 1445 | 2.205
303.15 K, x2 = 0.8177 | 973.17 | 1453.7 | 2.013
303.15 K, x2 = 0.9095 | 981.06 | 1463.3 | 1.891
313.15 K, x2 = 0 | 901.79 | 1374.5 | 6.406
313.15 K, x2 = 0.111 | 909.24 | 1375.4 | 4.824
313.15 K, x2 = 0.2179 | 917.23 | 1378.8 | 3.79
313.15 K, x2 = 0.3242 | 925.07 | 1382.8 | 3.092
313.15 K, x2 = 0.4274 | 932.99 | 1387.9 | 2.609
313.15 K, x2 = 0.5359 | 941.38 | 1395.5 | 2.311
313.15 K, x2 = 0.6269 | 948.61 | 1400 | 1.979
313.15 K, x2 = 0.7225 | 956.65 | 1408.2 | 1.834
313.15 K, x2 = 0.8177 | 964.63 | 1416.7 | 1.684
313.15 K, x2 = 0.9095 | 972.5 | 1425.7 | 1.578
323.15 K, x2 = 0 | 893.68 | 1340.9 | 4.527
323.15 K, x2 = 0.111 | 900.98 | 1341.1 | 3.563
323.15 K, x2 = 0.2179 | 908.86 | 1344.1 | 2.873
323.15 K, x2 = 0.3242 | 916.63 | 1347.7 | 2.399
323.15 K, x2 = 0.4274 | 924.49 | 1352.5 | 2.053
323.15 K, x2 = 0.5359 | 932.84 | 1359.8 | 1.833
323.15 K, x2 = 0.6269 | 940.06 | 1364.2 | 1.664
323.15 K, x2 = 0.7225 | 948.09 | 1372 | 1.547
323.15 K, x2 = 0.8177 | 956.06 | 1380 | 1.435
323.15 K, x2 = 0.9095 | 963.93 | 1388.8 | 1.367
